# From EP0124891A2, “Antimutagenic agent and method of inactivating the mutagenicity of foods and beverages by using said agent” (SUNTORY LIMITED, priority 1983, dated 1984)
# How the values were obtained:
# [1] = test system: mouse deodenum; details: 0.1 % of hydrogen peroxide; cited from earlier work
# [2] = test system: human cells; details: cited from earlier work
# [3] = test system: Neuros^pera crassa; details: cited from earlier work
# [4] = test system: Salmonella typhimurium TA 100; test: Mutagenicity and antimutagenic effect, Salmonella test (Ames), preincubation method, revertant colony count; details: Salmonella typhimurium TA 100 (histidine-requiring), 48 h, pH 7.4
# Procedure: Histidine-requiring Salmonella typhimurium TA 100 (hereunder S. TA 100) was used.
# Instant coffee powder was dissolved in distilled water. Predetermined amounts of wheat germ preparations were also dissolved in distilled water, and 50 µl of each solution was mixed with an equal amount of the aqueous coffee solution.
# Roasted coffee beans (20 g) were extracted with hot distilled water (250 ml), and the extract was filtered through coffee filter paper No. 12 manufactured by Kalita Co., Ltd. The extract was freeze-dried, and after measuring the weight of the dry product, it was dissolved in distilled water. Predetermined amounts of wheat germ preparations were also dissolved in distilled water, and 50 µl of each solution was mixed with an equal amount of the aqueous solution of coffee concentrate. […]
# To 100 µl of each of the samples prepared in (iii)(a) to (f), 500 µl of 0.1 M sodium phosphate buffer (pH 7.4) plus 100 µl of a culture of S. TA 100 strain were added. […] After incubation at 37°C for 48 hours, the number of colonies forming on the plate was counted as revertants. The percent inhibition of mutagenicity can be calculated by the following formula, if necessary: [formula]
# A powder of extracted coffee beans (15 mg) as prepared by the method shown in I)(iii)(b) was dissolved in distilled water to make 50 µl. […] The mutagenicity of each mixture was determined by the method shown in I)(i).
compound,measurement,setting,value
"OO [Hydrogen peroxide, hydrogen peroxide]",carcinogenicity,[1],proved to cause malignant tumors
same,clastogenicity to human cells,[2],clastogenic
same,mutagenicity to Neurospora crassa,[3],mutagenic
same,mutagenicity to S. TA 100,[4],160 revertants/10^8 survivors/Pmole
